Patent US20260355239A1, “COMBINATION OF A T CELL THERAPY AND CONTINUOUS OR INTERMITTENT DGK INHIBITOR DOSING” (Juno Therapeutics, Inc., priority 2022, published 2026)

Columns and labels:
[1] = tested on: Raji lymphoma tumor cells; assay: In vivo anti-tumor effect of dosing regimens with anti-CD19 CAR T cells, Raji-rFluc NSG mice (Example 6)
Procedure: The in vivo anti-tumor effects of different dosing regimens for Compound 17 in combination with anti-CD19 CAR T cells were assessed.
Following CAR-T cell administration, mice received one of three different Compound 17 dosing regimens or a vehicle control (n=8 per group). Specifically, mice received Compound 17 or vehicle control once daily (i) on Days 1-14 (“Early”), (ii) on Days 14-42 (“Delayed”), or (iii) on Days 1-28 (“Continuous”) of the combination therapy. All doses of Compound 17 were 0.3 mg/kg and were administered orally. […] Flow cytometry for assessing CD4:CD8 ratio was performed at Day 15.

anti-CD19 CAR-T cells [2] = assay: CAR-T cell phenotype after acute stimulation (flow cytometry); assay type: cell-based, human
Text: T cell compositions containing T cells expressing an exemplary anti-CD19 CAR were generated from leukapheresis samples from two healthy human adult donors by a process that included immunoaffinity-based selection of T cells by separately selecting CD4+ and CD8+ cells from the samples, resulting in two compositions enriched for CD4+ and CD8+ cells, respectively, per donor. Cells of the enriched CD4+ and CD8+ compositions were separately activated with anti-CD3/anti-CD28 beads and subjected to lentiviral transduction with a vector encoding an anti-CD19 CAR. The anti-CD19 CAR contained an anti-CD19 single-chain variable fragment (scFv) derived from a murine antibody (variable region derived from FMC63), an immunoglobulin-derived spacer, a transmembrane domain derived from CD28, a costimulatory region derived from 4-1BB, and a CD3-zeta intracellular signaling domain. […]
(§1) Prior to use, the cryopreserved CD4+ and CD8+ CAR-engineered cell compositions were thawed and combined at approximately a 1:1 CD4:CD8 ratio for each donor to prepare a combined CD4+ CAR+ and CD8+ CAR+ T cell composition. The effects of treatment with Compound 17 at various concentrations (0.1 nM, 1 nM, 10 nM, 100 nM, or 1000 nM) added at day 0 during stimulation of the combined CAR-T cell composition with a plate-bound CAR-specific anti-idiotypic antibody (see, e.g., WO2018/023100) or during co-culture with CD19-expressing cells was then assessed.
Approximately 20,000 cells of the combined CAR-T cell composition were stimulated with 3 μg/ml or 30 μg/ml plate-bound CAR-specific anti-idiotypic antibody in the presence of Compound 17. After a 48-hour stimulation, T cells were surface stained with antibodies for various activation and differentiation markers and analyzed by flow cytometry for the percent of cells positive for the assessed markers (% positive) and for mean fluorescence intensity (MFI) of expression for the assessed markers. […]

[3] = tested on: CD19-expressing lymphoma cells (K562.CD19, Granta-519, Raji); assay: Cytolytic activity of chronically stimulated, concurrently treated CAR-T cells, 2D co-culture; assay type: cell-based, human; conditions: concurrent treatment during chronic stimulation; 2D re-challenge without compound
Procedure: (§2) To simulate conditions of chronic stimulation, approximately 20,000 anti-CD19 CAR-expressing T cells of a combined CAR-T cell composition produced as described in Example 2 from two healthy adult donors were incubated with 30 µg/mL of plate-bound CAR-specific anti-idiotypic antibody (see, e.g., WO2018/023100) at 37 °C for a period of seven days. During this seven-day period, engineered CAR T cells were concurrently treated with Compound 17(0.1-1000 nM) or a vehicle control added at day 0.
(§3) Stimulated CAR T cells were then re-challenged with CD19-expressing tumor cells or tumor spheroids in the absence of Compound 17, and cytolytic activity and cytokine production were assessed.
(§4) To assess cytolytic function, the stimulated CAR-T cell composition was co-cultured with various CD19-expressing lymphoma cells at a 2.5:1 effector:target ratio. The tumor cells were engineered to express NucLight Red (NLR) and tumor cell number was monitored by Incucyte®. […] Duplicate values for cell compositions manufactured from the two different healthy donors are shown.

anti-CD19 CAR-T cells [4] = assay: CAR-T cell proliferation during stimulation (Incucyte); assay type: cell-based, human; conditions: 30 μg/mL plate-bound anti-idiotypic antibody, seven days
Text: T cell compositions containing T cells expressing an exemplary anti-CD19 CAR were generated from leukapheresis samples from two healthy human adult donors by a process that included immunoaffinity-based selection of T cells by separately selecting CD4+ and CD8+ cells from the samples, resulting in two compositions enriched for CD4+ and CD8+ cells, respectively, per donor. Cells of the enriched CD4+ and CD8+ compositions were separately activated with anti-CD3/anti-CD28 beads and subjected to lentiviral transduction with a vector encoding an anti-CD19 CAR. […]
as §1
T cell proliferation during stimulation with 30 μg/mL of plate-bound anti-CAR anti-idiotypic antibody in the presence of Compound 17 was monitored for seven days using an Incucyte imaging system. […]

CAR-expressing T cells = assay: Chronic stimulation assay, rescue treatment: tumor cell numbers, spheroid volume and cytokines during re-challenge of chronically stimulated CAR-expressing T cells (FIGS. 7A-8B); assay type: cell-based, human
Text: FIGS. 7A-7B and 8A-8B show cytolytic activity and cytokine production during re-challenge in the presence of Compound 17 of chronically stimulated CAR-expressing T cells (rescue treatment).
These observations were made using a chronic stimulation assay to render T cells (e.g. CAR T cells) hypofunctional (e.g. reduced cytolysis and IL-2 secretion). Using this model, engineered T cells (e.g. CAR T cells or eTCR T cells) were examined to assess impact of DGKi, such as Compound 17, on function of the engineered T cells when present during (concurrent) or following (rescue) exposure to conditions leading to a hypofunctional, exhaustive state.

[5] = tested on: anti-CD19 CAR-T cells with K562.CD19, Granta-519 and Raji cells; assay: Cytokine production of chronically stimulated, concurrently treated CAR-T cells, 2D co-culture; assay type: cell-based, human; conditions: concurrent treatment during chronic stimulation; 2D re-challenge, 48 h
Procedure: as §2, §3, §4
Supernatant was collected after 48 hours from the above co-cultures of chronically stimulated CAR-expressing T cells and CD19-expressing tumor cells. Cytokine production was measured from the supernatant by meso scale discovery (MSD) analysis of the collected cell supernatants. […]

[6] = 0.3 mg/kg oral once daily from Day 1, relative to vehicle
[7] = 48-hour stimulation, 3 or 30 μg/mL CAR-specific anti-idiotypic antibody

CC[C@H]1CN([C@@H](CC)c2ccc(C(F)(F)F)cc2)[C@H](CC)CN1c1nc(=O)n(C)c2ccc(C#N)nc12 [Compound 17, 4-((2S,5R)-2,5-diethyl-4-((S)-1-(4-(trifluoromethyl)phenyl)propyl)piperazin-1-yl)-1-methyl-2-oxo-1,2-dihydropyrido[3,2-d]pyrimidine-6-carbonitrile]
tumor suppression (tumor control index), Early regimen ([1]; 0.3 mg/kg oral once daily Days 1-14 with CAR T cells, relative to vehicle): enhanced tumor suppression | survival, Continuous regimen ([1]; 0.3 mg/kg oral once daily Days 1-28 with 1×10^6 CAR T cells): improved survival | tumor burden, Continuous regimen ([1]; 0.3 mg/kg oral once daily Days 1-28 with CAR T cells): reduced tumor burden | tumor suppression (tumor control index), Continuous regimen ([1]; 0.3 mg/kg oral once daily Days 1-28 with CAR T cells, relative to vehicle): enhanced tumor suppression | tumor suppression (tumor control index), Delayed regimen ([1]; 0.3 mg/kg oral once daily Days 14-42 with CAR T cells, relative to vehicle): did not | CAR T cell expansion, Day 15, Early or Continuous regimen [1, 6]: increased CAR T cell expansion | CD4:CD8 ratio, Day 15, Early or Continuous regimen [1, 6]: increase in CD4:CD8 ratio | CAR T cell expansion and CD4:CD8 ratio, Day 15, Delayed regimen ([1]; single 0.3 mg/kg oral dose, relative to vehicle): did not | expression of CD27 and CD62L (anti-CD19 CAR-T cells [2]; [7]): decreased expression of CD27 and CD62L | expression of CD69 and PD-1 (anti-CD19 CAR-T cells [2]; [7]): increased expression of CD69 and PD-1 | effect on cell phenotype, dose dependence (anti-CD19 CAR-T cells [2]; in particular 30 μg/mL CAR-specific anti-idiotypic antibody): dose-dependent | CAR-T cell cytolytic activity against CD19-expressing lymphoma cells [3]: decreased CAR-T cell cytolytic activity against the CD19-expressing lymphoma cells in a dose-dependent manner | T cell proliferation (% confluence) (anti-CD19 CAR-T cells [4]): did not affect T cell proliferation | recovery of activity of exhausted T cells (CAR-expressing T cells; chronically stimulated T cells exhibiting features of exhaustion): able to recover activity or have their activity restored or partially restored | rescue of T cell function of exhausted T cells (CAR-expressing T cells; rescue treatment, later exposure): could rescue or restore T cell function, including cytokine production and cytolytic activity, of exhausted T cells | production of IFNγ, IL-2 and TNFα [5]: dose-dependent increase in production of all three cytokines
